The subject of data set [1] is mice and rats. Briefly: anxiolytic activity, oral, mice and rats. Particulars: given orally to mice and rats. Format: in vivo. The source says:
For example in mice in the black-white box test and in the rat social interaction model.
(§1) The compounds of the invention are essentially non-toxic and therapeutically useful doses.

The subject of data set [2] is mice and rats. Briefly: oral tolerability / untoward effects in mice and rats. The class given is in vivo. The conditions noted are these: given orally to mice and rats at doses at which the compound exhibits anxiolytic activity.
Source text: as §1

The next data set has as its target T1, CCK-B receptor (Cavia porcellus, UniProt H0VZC5).
T1 construct: CCK-B receptor (guinea pig cortex assay); from tissue; host or cells: guinea pig cortex
Briefly: CCK-B receptor binding (guinea pig cortex assay). The conditions noted are these: read-out: pKi CCK-B (converted). On the procedure:
The greater affinity of the compounds of the invention for the CCK-B receptor over the CCK-A receptor has also been established using the CCK, receptor binding assays described by G Dal Fornos et al., J. Pharmcol. Exp & Ther. 261, 1056-1063, 1992.
The binding affinity of the compounds of the invention for the CCK-A receptor (Pancreas Assay) and CCK-B receptor (guinea pig cortex assay) was determined using the procedure of G Dal Forno et al J. Pharmacol. Exp & Ther. 261 - 1056-1063. The pKi values determined with respresentative compounds of invention were as follows: […]

T1 sequence (H0VZC5 entry or part of it): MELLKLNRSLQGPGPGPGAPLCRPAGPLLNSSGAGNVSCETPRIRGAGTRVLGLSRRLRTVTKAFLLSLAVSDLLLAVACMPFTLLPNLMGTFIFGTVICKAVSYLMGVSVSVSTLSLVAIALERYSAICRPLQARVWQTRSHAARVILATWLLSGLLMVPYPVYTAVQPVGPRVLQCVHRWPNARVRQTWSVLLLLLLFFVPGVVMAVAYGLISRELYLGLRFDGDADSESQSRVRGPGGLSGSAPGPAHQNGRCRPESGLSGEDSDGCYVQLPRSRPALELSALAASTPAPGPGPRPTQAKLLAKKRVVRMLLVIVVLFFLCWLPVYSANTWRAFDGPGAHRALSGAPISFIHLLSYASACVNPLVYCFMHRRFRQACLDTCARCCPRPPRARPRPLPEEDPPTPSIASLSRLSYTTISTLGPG

Regarding `O=C(Nc1ccccc1)NC1C(=O)N(CC23CC4CC(CC(C4)C2)C3)c2ccccc2N(c2ccccc2)C1=O` (single isomer, unassigned; (+)) [Example 45, (+)-N-[1-(Adamantanmethyl)-2,4-dioxo-5-phenyl-2,3,4,5-tetrahydro-1H-1,5-benzodiazepin-3-yl]-N'-phenylurea], the anxiolytic activity entry with mice and rats [1] is reported as “exhibits anxiolytic activity”. In the data set with mice and rats [2], the untoward effects entry is given as “no untoward effects were obserbved”.

With `O=C(Nc1ccccc1)NC1C(=O)N(CC2CC3C=CC2C3)c2ccccc2N(c2ccccc2)C1=O` (stereo not drawn) [Example 31, N-[1-(Bicyclo[2.2.1]-5-heptene-2-ylmethyl)-2,4-dioxo-5-phenyl-2,3,4,5-tetrahydro-1H-1,5-benzodiazepin-3-yl]-N'-phenylurea], the Ki at CCK-B receptor was 1.2 nM.

Source of the values: US5637697A, “1,5-benzodiazepine derivatives and their use in medicine” (Glaxo SpA, priority 1992, dated 1997).
